Drawing on doi:10.1101/2023.03.31.535043v1 (biorxiv, 2023), this text covers Ki for one molecule.

The assay addresses human A2AR (Homo sapiens, UniProt P29274). Kind of assay: radioligand displacement, [3H]ZM241385. The settings on record: […] [3H]ZMA; […] Tris/HCl pH […]; […] min; CHO K1 membranes. Format: binding.

Chain of human A2AR (P29274 whole entry): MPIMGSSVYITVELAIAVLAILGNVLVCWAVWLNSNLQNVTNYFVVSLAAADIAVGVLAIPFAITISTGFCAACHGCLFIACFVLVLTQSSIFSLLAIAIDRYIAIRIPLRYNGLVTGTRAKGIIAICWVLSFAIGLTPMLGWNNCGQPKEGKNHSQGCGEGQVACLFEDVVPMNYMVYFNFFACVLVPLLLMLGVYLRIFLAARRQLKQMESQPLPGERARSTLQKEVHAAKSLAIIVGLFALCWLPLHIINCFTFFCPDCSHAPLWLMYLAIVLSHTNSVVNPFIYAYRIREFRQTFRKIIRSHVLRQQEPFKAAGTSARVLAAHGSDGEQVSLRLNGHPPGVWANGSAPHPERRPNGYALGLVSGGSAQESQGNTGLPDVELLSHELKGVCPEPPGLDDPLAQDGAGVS

Consider `N#Cc1c(NC(=O)Cn2c(=O)oc3ccccc32)oc(-c2ccccc2)c1-c1ccccc1` [JG-10], for which the affinity, expressed as Ki, was 0.31 ± 0.0234 µM.

By Ki is commonly meant a dissociation constant, usually derived from enzyme kinetics or from competition with a known ligand.
